Data taken from PubChem BioAssay AID248 (DTP/NCI, 2004).
Values joined by “and” are separate entries in the source; they are usually repeats but may differ in a detail not shown here. Equal entries are not always repeated. Toxic doses and inconclusive results are not listed.

Test system: L1210 leukemia ip in BDF1 mice, survival T/C
Experiment: NCI In Vivo Anticancer Drug Screen. Data for tumor model L1210 Leukemia (intraperitoneal) in B6D2F1 (BDF1) mice
Settings: endpoint: mean survival time, higher = longer survival
Summary of the method: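 Each compound was tested against a transplantable tumor grown in mice. The endpoint was survival, with treated animals benchmarked against vehicle controls as a simple ratio.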

[1] = dose: 100.0 mg/kg/injection, schedule: Q04DX003 (ip), vehicle: saline
[2] = dose: 200.0 mg/kg/injection, schedule: Q04DX003 (ip), vehicle: saline
[3] = dose: 400.0 mg/kg/injection, schedule: Q04DX003 (ip), vehicle: saline
[4] = dose: 100.0 mg/kg/injection, schedule: Q01DX009 (ip), vehicle: Klucel (hydroxypropylcellulose) (HPC)
[5] = dose: 100.0 mg/kg/injection, schedule: Q04DX003 (ip), vehicle: Klucel (hydroxypropylcellulose) (HPC)
[6] = dose: 200.0 mg/kg/injection, schedule: Q01DX009 (ip), vehicle: Klucel (hydroxypropylcellulose) (HPC)
[7] = dose: 200.0 mg/kg/injection, schedule: Q04DX003 (ip), vehicle: Klucel (hydroxypropylcellulose) (HPC)
[8] = dose: 400.0 mg/kg/injection, schedule: Q04DX003 (ip), vehicle: Klucel (hydroxypropylcellulose) (HPC)
[9] = dose: 100.0 mg/kg/injection, schedule: Q04DX002 (ip), vehicle: Klucel (hydroxypropylcellulose) (HPC)
[10] = dose: 100.0 mg/kg/injection, schedule: Q01DX001 (ip), vehicle: saline
[11] = dose: 200.0 mg/kg/injection, schedule: Q01DX001 (ip), vehicle: saline
[12] = dose: 400.0 mg/kg/injection, schedule: Q01DX001 (ip), vehicle: saline
[13] = dose: 400.0 mg/kg/injection, schedule: Q01DX009 (ip), vehicle: Klucel (hydroxypropylcellulose) (HPC)
[14] = dose: 25.0 mg/kg/injection, schedule: Q04DX003 (ip), vehicle: saline
[15] = dose: 50.0 mg/kg/injection, schedule: Q01DX001 (ip), vehicle: saline

In the case of `Cc1cccc(CNCC(=O)O)c1`, the T/C (dose: 100.0 mg/kg/injection, schedule: Q01DX009 (ip), vehicle: saline) is reported as 105 % of control, the T/C [1] is reported as 92 % of control and the T/C (dose: 200.0 mg/kg/injection, schedule: Q01DX009 (ip), vehicle: saline) is reported as 92 % of control. For the same compound, the T/C [2] was 98 % of control, the T/C (dose: 400.0 mg/kg/injection, schedule: Q01DX009 (ip), vehicle: saline) was 105 % of control and the T/C [3] was 98 % of control.

With `OC1CCC2CCCC2C1` (stereo not drawn) the T/C [4] was 97 % of control, the T/C [5] was 102 % of control and the T/C [6] was 97 % of control. For the same compound, the T/C [7] was 98 % of control and the T/C [8] was 99 % of control.

In the case of `O=C([O-])c1ccccc1[S+](c1ccccc1)c1ccccc1`, the T/C (dose: 18.0 mg/kg/injection, schedule: Q04DX002 (ip), vehicle: saline with Tween-80) is reported as 104 % of control.

For `O=C(O)CCCc1ccc(Br)cc1`, the T/C (dose: 100.0 mg/kg/injection, schedule: Q04DX003 (ip), vehicle: saline with Tween-80) was 96 % of control, the T/C (dose: 200.0 mg/kg/injection, schedule: Q04DX003 (ip), vehicle: saline with Tween-80) was 92 % of control and the T/C (dose: 400.0 mg/kg/injection, schedule: Q04DX003 (ip), vehicle: saline with Tween-80) was 93 % of control.

In the case of `O=[N+]([O-])c1ccccc1N=Nc1c(O)[nH]c2ccc(S(=O)(=O)O)cc12`, the T/C (dose: 100.0 mg/kg/injection, schedule: Q01DX001 (ip), vehicle: acetone) is reported as 94 % of control, the T/C (dose: 200.0 mg/kg/injection, schedule: Q01DX001 (ip), vehicle: acetone) is reported as 92 % of control and the T/C (dose: 400.0 mg/kg/injection, schedule: Q01DX001 (ip), vehicle: acetone) is reported as 100 % of control.

With `NC(CCl)=NCC12CC3CC(CC(C3)C1)C2` the T/C [9] was 98 % of control and the T/C (dose: 200.0 mg/kg/injection, schedule: Q04DX002 (ip), vehicle: Klucel (hydroxypropylcellulose) (HPC)) was 104 % of control and 87 % of control.

`CC1C(C(C)(C)C)N1C` (stereo not drawn) was tested, and the T/C [5] was 108 % of control and the T/C [7] was 110 % of control.

With `CCOC(=O)Nc1ccc(OC(=O)Oc2ccc(NC(=O)OCC)cc2)cc1` the T/C [10] was 97 % of control, the T/C [11] was 97 % of control and the T/C [12] was 86 % of control.

In the case of `Cc1ccc(S(=O)(=O)N2CCC=Cc3ccccc32)cc1`, the T/C (dose: 100.0 mg/kg/injection, schedule: Q01DX001 (ip), vehicle: carboxymethylcellulose (CMC)) is reported as 110 % of control, the T/C (dose: 200.0 mg/kg/injection, schedule: Q01DX001 (ip), vehicle: carboxymethylcellulose (CMC)) is reported as 102 % of control and the T/C (dose: 400.0 mg/kg/injection, schedule: Q01DX001 (ip), vehicle: carboxymethylcellulose (CMC)) is reported as 107 % of control.

In the case of `CCOC(OCC)c1cc(=O)[nH]c(N)n1`, the T/C [4] is reported as 101 % of control, the T/C [6] is reported as 97 % of control and the T/C [13] is reported as 96 % of control.

With `O=C1CCC(N2C(=O)C3CCCCC3C2=O)C(=O)N1` (stereo not drawn) the T/C [1] was 97 % of control, the T/C [2] was 93 % of control and the T/C [3] was 101 % of control.

With `Cc1ccc(C#N)s1` the T/C (dose: 3.12 mg/kg/injection, schedule: Q01DX009 (ip), vehicle: other) was 98 % of control, the T/C (dose: 6.25 mg/kg/injection, schedule: Q01DX009 (ip), vehicle: other) was 104 % of control and the T/C (dose: 12.5 mg/kg/injection, schedule: Q01DX009 (ip), vehicle: other) was 98 % of control. The T/C (dose: 16.0 mg/kg/injection, schedule: Q04DX003 (ip), vehicle: saline) was 102 % of control, the T/C (dose: 25.0 mg/kg/injection, schedule: Q01DX009 (ip), vehicle: other) was 106 % of control and the T/C [14] was 117 % of control.

With `C/C(=N\NS(C)(=O)=O)C(C)(C)C` the T/C (dose: 75.0 mg/kg/injection, schedule: Q01DX001 (ip), vehicle: other) was 103 % of control, the T/C (dose: 150.0 mg/kg/injection, schedule: Q01DX001 (ip), vehicle: other) was 103 % of control and the T/C (dose: 300.0 mg/kg/injection, schedule: Q01DX001 (ip), vehicle: other) was 97 % of control.

`Nc1ccc(-c2ccc(N)c(Oc3ccccc3)c2)cc1Oc1ccccc1` was tested, and the T/C (dose: 100.0 mg/kg/injection, schedule: Q01DX001 (ip), vehicle: other) was 92 % of control, the T/C (dose: 200.0 mg/kg/injection, schedule: Q01DX001 (ip), vehicle: other) was 97 % of control and the T/C (dose: 400.0 mg/kg/injection, schedule: Q01DX001 (ip), vehicle: other) was 94 % of control.

For `O=C(NCCc1ccccc1)Nc1ccccc1Cl`, the T/C (dose: 100.0 mg/kg/injection, schedule: Q01DX009 (ip), vehicle: gum acacia) was 96 % of control, the T/C (dose: 100.0 mg/kg/injection, schedule: Q04DX003 (ip), vehicle: gum acacia) was 92 % of control and the T/C (dose: 200.0 mg/kg/injection, schedule: Q01DX009 (ip), vehicle: gum acacia) was 115 % of control. For the same compound, the T/C (dose: 200.0 mg/kg/injection, schedule: Q04DX003 (ip), vehicle: gum acacia) was 92 % of control, the T/C (dose: 400.0 mg/kg/injection, schedule: Q01DX009 (ip), vehicle: gum acacia) was 100 % of control and the T/C (dose: 400.0 mg/kg/injection, schedule: Q04DX003 (ip), vehicle: gum acacia) was 97 % of control.

For `O=C(COc1cccc(C(=O)O)c1)Nc1ccccc1`, the T/C [5] was 95 % of control, the T/C [7] was 93 % of control and the T/C [8] was 92 % of control.

With `COc1ccc(C)cc1NC(=O)Oc1ccc2c(C)cc(=O)oc2c1` the T/C (dose: 100.0 mg/kg/injection, schedule: Q01DX009 (ip), vehicle: saline with Tween-80) was 96 % of control and the T/C (dose: 200.0 mg/kg/injection, schedule: Q01DX009 (ip), vehicle: saline with Tween-80) was 96 % of control.

With `COc1cc(C=Nc2ccc3ccccc3c2)ccc1N(CCCl)CCCl` the T/C (dose: 0.9 mg/kg/injection, schedule: Q01DX009 (ip), vehicle: carboxymethylcellulose (CMC)) was 102 % of control, the T/C (dose: 1.3 mg/kg/injection, schedule: Q01DX009 (ip), vehicle: carboxymethylcellulose (CMC)) was 118 % of control and the T/C (dose: 1.5 mg/kg/injection, schedule: Q01DX009 (ip), vehicle: carboxymethylcellulose (CMC)) was 108 % of control. For the same compound, the T/C (dose: 3.0 mg/kg/injection, schedule: Q01DX009 (ip), vehicle: carboxymethylcellulose (CMC)) was 114 % of control and 117 % of control, the T/C (dose: 6.0 mg/kg/injection, schedule: Q01DX009 (ip), vehicle: carboxymethylcellulose (CMC)) was 122 % of control and the T/C (dose: 20.0 mg/kg/injection, schedule: Q01DX009 (ip), vehicle: carboxymethylcellulose (CMC)) was 119 % of control. For the same compound, the T/C (dose: 30.0 mg/kg/injection, schedule: Q01DX009 (ip), vehicle: carboxymethylcellulose (CMC)) was 100 % of control, the T/C (dose: 40.0 mg/kg/injection, schedule: Q01DX001 (ip), vehicle: carboxymethylcellulose (CMC)) was 151 % of control and the T/C (dose: 75.0 mg/kg/injection, schedule: Q01DX001 (ip), vehicle: carboxymethylcellulose (CMC)) was 119 % of control.

In the case of `CCCNS(=O)(=O)c1cccc(C(N)=S)c1`, the T/C (dose: 100.0 mg/kg/injection, schedule: Q01DX001 (ip), vehicle: Klucel (hydroxypropylcellulose) (HPC)) is reported as 101 % of control, the T/C (dose: 200.0 mg/kg/injection, schedule: Q01DX001 (ip), vehicle: Klucel (hydroxypropylcellulose) (HPC)) is reported as 100 % of control and the T/C (dose: 400.0 mg/kg/injection, schedule: Q01DX001 (ip), vehicle: Klucel (hydroxypropylcellulose) (HPC)) is reported as 103 % of control.

With `CC1(C)C2=CCCC2CC/C1=N/NC(N)=O` (stereo not drawn) the T/C (dose: 25.0 mg/kg/injection, schedule: Q04DX002 (ip), vehicle: Klucel (hydroxypropylcellulose) (HPC)) was 107 % of control, the T/C (dose: 50.0 mg/kg/injection, schedule: Q04DX002 (ip), vehicle: Klucel (hydroxypropylcellulose) (HPC)) was 93 % of control and the T/C [9] was 90 % of control.

`O=[N+]([O-])c1cccc(S(=O)(=O)SC(Cl)(Cl)Cl)c1` was tested, and the T/C [14] was 96 % of control.

With `O=S1(=O)C(C(O)(c2ccccc2)c2ccccc2)CCC1C(O)(c1ccccc1)c1ccccc1` (stereo not drawn) the T/C [4] was 98 % of control, the T/C [5] was 102 % of control and the T/C [6] was 98 % of control. For the same compound, the T/C [7] was 93 % of control, the T/C [13] was 93 % of control and the T/C [8] was 105 % of control.

`S=P(c1ccccc1)(c1ccccc1)c1cccc2ccccc12` was tested, and the T/C [10] was 100 % of control, the T/C [11] was 94 % of control and the T/C [12] was 94 % of control.

`O=c1[nH]cc(/C=N\Nc2ccccc2)c(=O)[nH]1` was tested, and the T/C [15] was 97 % of control, the T/C [10] was 101 % of control and the T/C [11] was 101 % of control. For the same compound, the T/C [12] was 101 % of control.

For `COc1cc2nccc3c4ccccc4n(c1=O)c23`, the T/C [15] was 97 % of control, the T/C [10] was 101 % of control and the T/C [11] was 101 % of control. The T/C [12] was 97 % of control.

For `Cc1ccc(-c2nc3ncncc3[nH]2)cc1[N+](=O)[O-]`, the T/C (dose: 32.5 mg/kg/injection, schedule: Q01DX001 (ip), vehicle: Klucel (hydroxypropylcellulose) (HPC)) was 100 % of control, the T/C (dose: 65.0 mg/kg/injection, schedule: Q01DX001 (ip), vehicle: Klucel (hydroxypropylcellulose) (HPC)) was 102 % of control and the T/C (dose: 130.0 mg/kg/injection, schedule: Q01DX001 (ip), vehicle: Klucel (hydroxypropylcellulose) (HPC)) was 97 % of control.
